In series [1] the test system is unfractionated heparin anticoagulation. The series is described as follows: DAP reversal of unfractionated heparin anticoagulation in vivo, aPTT. Also noted: species or system rat. The source says:
The activated partial thromboplastin time (aPTT) assay is an assay that measures how long it takes for the blood to clot. Blood samples are collected for direct measurement or in tubes with oxalate and citrate to arrest coagulation by calcium until the assay can be performed. In the assay, a phospholipid, an activator (silica, celite, kaolin, ellagic acid, etc.), and calcium are mixed into the plasma to induce coagulation. The assay measures the time until a thrombus (clot) forms.
A male albino rat, weighing 515 g, was administered 10 mg/kg of unfractionated heparin (5 mg UFH) by subcutaneous injection.
200 mg/kg of DAP (100 mg DAP) was administered as two intravenous bolus injections after UFH administration. Subsequently, the rat was administered a dose of 400 mg/kg of DAP (200 mg of DAP). aPTT was measured throughout the course of the entire treatment.

The nature of series [2]: Intravenous DAP tolerability in rats. It is filed as in vivo, rat. Conditions: DAP i.v. at 100 mg/kg, 250 mg/kg and 400 mg/kg in rats.
Series [3] in a line: Water solubility of DAP. It is filed as physicochemical. On the procedure: In one embodiment, wherein the pharmaceutical composition comprises the DAP compound of formula V (or its stereoisomer of formula VII) and the composition is adapted for parenteral administration in an injection, the compound is dissolved in water with appropriate tonicity and molality modifiers (such as phosphate buffered saline). DAP is water-soluble at greater than 100 mg/ml. In the one embodiment, DAP is adapted as a sterile solution for IV administration. In one aspect, the molality of the pharmaceutical composition in which DAP is adapted for IV administration is adjusted to 290 mOsm/L with sodium chloride, and the pH is adjusted to 7.4 with sodium hydroxide. Preferably the pharmaceutical composition is administered as an intravenous bolus by slow push.

The subject of series [4] is dabigatran etexilate (PRADAXA®) anticoagulation. The series is described as follows: Rat tail transection bleeding assay, dabigatran etexilate. It is filed as in vivo. On the procedure: Rat tail bleeding assay or rat tail transection assay is an assay that measures blood loss, e.g., blood loss after drug administration. In one embodiment, where the effect of the compound of the invention (e.g., DAP) is being tested, at the Tmax of the anticoagulant, DAP is administered intravenously. After 20 minutes, rat tails are transected approximately 1 mm from the tip, placed in room temperature saline, and blood is collected for 30 minutes and weighed.
Three rats each were administered 2 mg of rivaroxaban. One rat received a sham reversal containing no DAP, the second received 2.5 mg of DAP, and the third received 12.5 mg DAP. A fourth fat received sham anticoagulant and reversal doses (“sham”). 20 minutes after the reversal dose, tails were transected 1 mm from the tip, placed in room temperature saline, and blood loss was collected for 30 minutes and then weighed.
Same procedures were used with 1.25 mg apixaban (ELIQUIS®) alone or in combination with 5 or 12.5 mg DAP; […]; and with 5 mg edoxaban (LIXIANA®) alone or in combination with 12.5 mg DAP.

For series [5], the system named is dabigatran (PRADAXA®) anticoagulation. The series is described as follows: DAP reversal of dabigatran (PRADAXA®) anticoagulation in vivo, aPTT. Further details: species or system rat. Conditions: 15.5 mg/kg PRADAXA®, 100 mg/kg DAP (FIG. 13).
A short description of series [6]: Dynamic light scattering (DLS) association of DAP with unfractionated heparin. Format: binding. Particulars: DAP:heparin 100:1 mass ratio in water. Here is the method: Dynamic light scattering (DLS) was used to assess association of 1 mg/ml unfractionated heparin and 1 mg/ml bemiparin (LMWH; HIBOR®), either alone or in combination with […] DAP in water (mass ratios of 100:1 of DAP to heparin or LMWH).

The test system of series [7] is fondaparinux anticoagulation. The series is described as follows: DAP reversal of fondaparinux (ARIXTRA®) anticoagulation in vivo, chromogenic Factor Xa assay. Also noted: species or system rat. Here is the method: (§1) The anti-factor Xa assay directly measures anti-factor Xa activity. The methodology behind an anti-factor Xa assay is that patient plasma is added to a known amount of excess factor Xa and excess antithrombin. If a factor Xa inhibitor is present in the patient plasma, it will reduce the enzymatic activity of factor Xa. The amount of residual factor Xa is inversely proportional to the amount of anti-Xa agent in the plasma. The amount of residual factor Xa is detected by adding a chromogenic substrate that mimics the natural substrate of factor Xa, making residual factor Xa cleave it, releasing a colored compound that can be detected by a spectrophotometer. […] Results are given in anticoagulant concentration in units/mL of antifactor Xa, such that high values indicate high levels of anticoagulation and low values indicate low levels of anticoagulation.
5 mg/kg fondaparinux was administered subcutaneously to rats. 200 mg/kg DAP was administered intravenously after 2 hours. Activity was measured by chromogenic 510 k cleared Factor Xa Assay (Biophen) at 10, 20, 30 and 60 minutes after DAP administration.

Series [8] relates to rivaroxaban-induced anticoagulation. The series is described as follows: DAP reversal of rivaroxaban in freshly drawn human blood ex vivo, aPTT. Format: biochemical. Particulars: 0.25 μg/ml rivaroxaban, 50 μg/ml DAP. Here is the method:
Human blood was drawn from a volunteer. Rivaroxaban at 0.25 μg/ml was added alone or in combination with 50 μg/ml DAP. Controls contained 50 μg/ml DAP or saline. aPTT was measured within 2 minutes of blood collection.

Series [9] deals with apixaban anticoagulation. The series is described as follows: DAP reversal of apixaban in human plasma ex vivo, Biophen anti-Factor Xa chromogenic assay. Format: biochemical. On the procedure:
as §1
218 μg/L or 459 μg/L of rivaroxaban was added to human plasma, with or without 1,250 μg/L or 6,250 μg/L of DAP, respectively. […] DAP effect on anticoagulation was measured by 510 k cleared Biophen anti-Factor Xa chromogenic assay. Rivaroxaban concentrations were determined by comparison with plasma calibration standards, while apixaban concentrations were inferred from stock solution dilutions as calibration standards are not yet available.

Entries after “also recorded” stand apart in the source; their conditions may differ.

For `N=C(N)NCCC[C@H](N)C(=O)NCCCN1CCN(CCCNC(=O)[C@@H](N)CCCNC(=N)N)CC1` (stereo in doubt) [DAP, 2-Amino-5-guanidino-pentanoic acid (3-{4-[3-(2-amino-5-guanidino-pentanoylamino)-propyl]-piperazin-1-yl}-propyl)-amide], the “aPTT after DAP” value was determined as 33 s in series [1] (200 mg DAP i.v., 10 minutes); 48 s in series [1] (first 100 mg DAP i.v., 20 minutes); 47 s in series [1] (second 100 mg DAP i.v., 15 minutes). The “reversal of unfractionated heparin in vivo” value in series [1] (rat, in vivo) is listed as “reversed”. Besides, the “aPTT risen after first DAP dose” value in series [1] (within 1 hour after first 100 mg DAP) stood at 120 s. Also, the “aPTT risen after second DAP dose” value in series [1] (within 1 hour after second 100 mg DAP) turned out to be 96 s. Besides, the adverse effects result in series [2] is given as “no adverse effect”. Moreover, in series [3], the solubility (usually the concentration that dissolves in the medium under given conditions) is more than 100 mg/mL. Also, the “blood loss (blood collected over 30 minutes)” value in series [4] (15 mg dabigatran etexilate and 12.5 mg DAP, p<0.01 vs dabigatran etexilate only) is “reduced blood loss to sham dose levels”. The “reversal of dabigatran, blood loss vs anticoagulant only” value in series [4] (rat tail transection, 30 minutes) was “statistically significant reduction in blood loss”. For the same compound, the “time until aPTT returned to normal after DAP” value in series [5] is not above 30 min. Besides, the “physical association / binding by DLS” value in [6] was “physically associated; also recorded: directly bound”. The “time to reversal of fondaparinux anticoagulation” value in [7] (5 mg/kg fondaparinux s.c., 200 mg/kg DAP i.v. after 2 hours) was not above 10 min. In addition, the “reversal of subcutaneous fondaparinux in vivo” value in series [7] (rats, Xa activity) is reported as “reversed”. For the same compound, the “effect on rivaroxaban-induced anticoagulation, aPTT” value in series [8] is recorded as “reversal of rivaroxaban-induced anticoagulation”. The “effective anticoagulant concentration after DAP” value in series [9] (156 μg/L apixaban with 1,156 μg/L DAP, 313 μg/L apixaban with 3,125 μg/L DAP) was “below the minimum effective concentration”. The “dose dependence of apixaban reversal” value in series [9] (human blood ex vivo) is “dose-dependent reversal”.

The record behind these values is patent publication US9877961B2, “Anticoagulant reversal agents” (PEROSPHERE INC., priority 2011, dated 2018).
